Where a name gives a salt, the structure may show the parent alone.
Experiments:
sigma-1 receptor (S1R) [1] = target: T1, sigma-1 receptor (S1R) (Cavia porcellus, UniProt Q60492); assay: ligand stabilization of the purified oligomer, analytical SEC; assay type: binding; design: gene SIGMAR1; MBP-4A-S1R, purified oligomer (peak 1)
sigma-1 receptor (S1R) [2] = target: T2, sigma-1 receptor (S1R) (Cavia porcellus, UniProt Q60492, H97A); assay: radioligand filtration binding, […] (+)-[3H]pentazocine
T2 construct: gene SIGMAR1; MBP-4A-S1R

sigma-1 receptor (S1R) [3] = target: T1, sigma-1 receptor (S1R); assay: ligand stabilization of the purified oligomer at […] °C, analytical SEC; assay type: binding; design: gene SIGMAR1; MBP-4A-S1R, purified oligomer (peak 1)
sigma-1 receptor (S1R) [4] = target: T1, sigma-1 receptor (S1R); assay: titration by ligand stabilization of the oligomer, analytical SEC with tryptophan fluorescence; assay type: binding; design: gene SIGMAR1

T1 sequence (Q60492 whole entry): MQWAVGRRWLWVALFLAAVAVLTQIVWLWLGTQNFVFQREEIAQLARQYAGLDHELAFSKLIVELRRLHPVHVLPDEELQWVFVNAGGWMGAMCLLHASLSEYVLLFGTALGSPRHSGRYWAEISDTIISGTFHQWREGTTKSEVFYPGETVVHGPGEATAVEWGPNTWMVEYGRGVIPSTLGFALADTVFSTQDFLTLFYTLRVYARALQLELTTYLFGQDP
T2 sequence (Q60492 whole entry H97A): as the sequence (Q60492 whole entry) above, with H97A counted along it

CCCCCCCCCCCCC/C=C/[C@@H](O)[C@@H](N)CO [sphingosine]
ligand stabilization of the purified oligomer, analytical SEC (sigma-1 receptor (S1R) [1]): the natural membrane lipid sphingosine gave a stabilizing interaction that was close to that of many of the synthetic ligands

CC(C)=CCN1CC[C@]2(C)c3cc(O)ccc3C[C@H]1[C@H]2C [(+)-pentazocine]
% of nonmutated binding (sigma-1 receptor (S1R) [2]): ~ 50 % of nonmutated binding

c1ccc(CCCCN2CCC(c3ccccc3)CC2)cc1 [4-PPBP, 4-phenyl-1-(4-phenylbutyl)piperidine maleate]
ligand stabilization of the purified oligomer at 37 °C, analytical SEC (sigma-1 receptor (S1R) [3]): Tight-binding ligands 4-PPBP, BD-1047 and others stabilized the oligomeric states

CN(C)CCN(C)CCc1ccc(Cl)c(Cl)c1 [BD-1047, N-[2-(3,4-dichlorophenyl)ethyl]-N-methyl-2-(dimethylamino)ethylamine dihydrobromide]
Kd (sigma-1 receptor (S1R) [4]): ~7 nM
